Experiments:
[1] = test system: maize endosperm AGPase, heat stable ISM mutants; test: Apparent kinetic constants with 3-PGA, 37° C., ISM mutants collectively; type: biochemical, Zea mays; conditions: mutants versus wt maize, in the presence of 3-PGA
Experimental: An endpoint assay was used to determine the rate of the AGPase reaction by coupling the formation of PPi to a decrease in NADH concentration (Boehlein et al., 2008). […] The Michaelis constants (Km) were obtained by varying one substrate in the presence of saturating concentrations of the second substrate. The activation constants were obtained by varying the activator at fixed levels of both substrates. All reactions were performed at 37° C. and mixes were prewarmed before starting the reaction with enzyme. Reactions were terminated by boiling the reaction mixes for 2 minutes followed by development with 200 μl of coupling reagent (25 mM imidazole pH 7.4, 4 mM MgCl2, 1 mM EDTA, 0.2 mM NADH, 0.725 U aldolase, 0.4 U triose phosphate isomerase, 0.6 U glycerophosphate dehydrogenase, 1 mM fructose 6-phosphate and 0.8 μg purified PPi-PFK per reaction). The absorbance at 340 nm was monitored after 30 min and the amount of PPi produced was determined from a standard curve using PPi in complete reaction mixtures lacking AGPase. Blank samples contained complete reaction mixtures without enzyme and the change in absorbance between the blank and the reaction was used to calculate the amount of PPi produced. Reactions were linear with time and enzyme concentration.
The apparent Michaelis constant and maximum velocity of each reaction was calculated from a V vs. S plots using nonlinear regression analysis and the following equation, v=VmaxS/(Km+S), where v is the measured velocity, Vmax is the maximum velocity, S is the substrate concentration. The activation constant (Ka) was obtained using the following equation: V=Vmin+Vmax*(X)/(Ka+X), where Vmin is the velocity in the absence of activator and Vmax is the change in activity from Vmin to the total velocity. X is the activator concentration, Ka is the activation constant. All linear regression was carried out using the software program Prism (Graph Pad, San Diego Calif.).
Each mutant, comprising 1, 2, 3 or 4 changes, was grown in a large scale culture, expressed and purified according to standard procedures (Boehlein et al., 2005). […] Thus, the effects of these mutations on the kinetic constants are minimal. Next, the activation constant, Ka, was determined for each of the mutant enzymes. Here a decrease in the Ka for each of the mutants of approximately 3-6 fold was observed. This property appears to stem from the D161G change, and includes all enzymes which carry this mutation (Table 8). To be certain the effect is the result of the D161G mutation, and not the result of other single mutant changes, Q96R and Q96G were purified and characterized.

[2] = biological target: T1, maize endosperm AGPase, large subunit variant D161G (numbering of SEQ ID NO: 20) (Zea mays, UniProt P55241+Q84PF5, D161G); test: Kinetic constants in the absence of 3-PGA, D161G; type: biochemical
T1 sequence (P55241 46-516 D161G): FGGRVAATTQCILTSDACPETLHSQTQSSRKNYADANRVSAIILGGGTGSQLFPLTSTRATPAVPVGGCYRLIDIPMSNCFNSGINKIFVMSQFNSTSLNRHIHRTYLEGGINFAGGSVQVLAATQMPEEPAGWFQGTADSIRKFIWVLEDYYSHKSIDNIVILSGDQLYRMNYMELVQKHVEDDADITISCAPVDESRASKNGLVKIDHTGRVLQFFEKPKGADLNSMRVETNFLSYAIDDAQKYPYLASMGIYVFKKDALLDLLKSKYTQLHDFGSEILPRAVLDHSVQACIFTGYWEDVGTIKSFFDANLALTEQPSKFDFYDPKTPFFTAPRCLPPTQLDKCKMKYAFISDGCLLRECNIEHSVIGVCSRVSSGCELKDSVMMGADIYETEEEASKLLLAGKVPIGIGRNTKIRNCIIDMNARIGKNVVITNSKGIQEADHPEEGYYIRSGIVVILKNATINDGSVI
T1 sequence (Q84PF5 1-474): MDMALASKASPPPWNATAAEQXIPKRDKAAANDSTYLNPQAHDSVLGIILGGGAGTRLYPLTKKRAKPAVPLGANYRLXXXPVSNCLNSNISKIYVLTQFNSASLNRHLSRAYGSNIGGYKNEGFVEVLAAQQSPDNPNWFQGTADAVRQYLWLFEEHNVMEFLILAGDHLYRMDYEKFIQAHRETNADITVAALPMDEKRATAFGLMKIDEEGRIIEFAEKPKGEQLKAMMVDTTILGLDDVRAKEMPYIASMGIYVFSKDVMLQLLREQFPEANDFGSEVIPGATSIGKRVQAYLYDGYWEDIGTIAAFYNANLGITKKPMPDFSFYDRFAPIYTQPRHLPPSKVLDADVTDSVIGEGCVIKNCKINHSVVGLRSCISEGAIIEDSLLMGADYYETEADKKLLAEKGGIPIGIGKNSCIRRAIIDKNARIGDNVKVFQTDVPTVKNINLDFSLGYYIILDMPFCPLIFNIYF
Experimental: Reactions were performed for 10 min and terminated by boiling. Blank mixtures contained everything except ATP.
Based on the kinetic results (Table 10) and catalytic properties at 55° C. (Table 10) both D161G and GGR were selected for a more detailed kinetic analysis. […] The GGR mutant was primarily chosen based on its increased catalytic rate at 37° C. and high performance at 55° C. Its high activity in the absence of 3-PGA was also paramount. The first kinetic parameters determined were the Michaelis constants, the catalytic rate (kcat) and the dissociation constant (Kia) for the E-ATP complex, in the absence of 3-PGA. […] For the wt maize enzyme, this activator primarily responds by reducing the Km for both substrates, with little effect on the reaction rate (Boehlein et al., 2013). […] The kinetic mechanism established ATP as the first substrate to bind, thus the activator is no longer necessary for this first step. […] This variant also conditions both heat stability and high activity in the absence of an activator.

[3] = test system: maize endosperm AGPase, wild type; conditions: Maize wt, presence of 3-PGA, ATP varied, Pi inhibition, P-MT; read-out: Km (ATP); cited from earlier work
[4] = biological target: T2, maize endosperm AGPase, evolutionary mutant SH2-E (Zea mays, UniProt P55241+Q84PF5); conditions: cited from earlier work
T2 construct: data of Boehlein et al., 2013
T2 sequence (P55241 46-516, change not shown, one chain of several): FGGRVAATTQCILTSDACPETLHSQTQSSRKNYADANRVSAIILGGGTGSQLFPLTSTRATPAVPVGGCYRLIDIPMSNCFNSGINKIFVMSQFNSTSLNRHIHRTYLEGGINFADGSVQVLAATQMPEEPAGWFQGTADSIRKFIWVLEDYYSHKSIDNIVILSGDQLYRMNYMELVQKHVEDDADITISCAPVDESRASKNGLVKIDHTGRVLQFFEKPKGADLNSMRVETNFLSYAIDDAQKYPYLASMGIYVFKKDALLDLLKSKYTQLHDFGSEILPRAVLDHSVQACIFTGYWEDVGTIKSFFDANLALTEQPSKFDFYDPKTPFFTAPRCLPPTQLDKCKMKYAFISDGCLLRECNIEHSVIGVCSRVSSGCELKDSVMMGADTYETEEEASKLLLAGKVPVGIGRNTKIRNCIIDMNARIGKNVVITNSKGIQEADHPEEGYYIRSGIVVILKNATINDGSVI

Nc1ncnc2c1ncn2[C@@H]1O[C@H](COP(=O)(O)OP(=O)(O)OP(=O)(O)O)[C@@H](O)[C@H]1O [ATP]
largest variation in Km [1]: approximately two-fold
decrease of Km for ATP compared to wild-type [2]: ~100 ×
kcat ([2]; ATP varied at fixed G-1-P): 48.8 s⁻¹
Km ([2]; read-out: ATP Km): 43 µM
Km [3]: 110 µM
kcat ([4]; absence of 3-PGA): 67.6 s⁻¹
Km ([4]; read-out: ATP Km, absence of 3-PGA): 2530 µM
Kd ([4]; read-out: Kia (dissociation constant for the E-ATP complex), absence of 3-PGA): 5.4 mM

— patent publication US9650616B2, “Methods for increasing grain yield” (University of Florida Research Foundation, Inc., priority 2014, dated 2017)
